Source: ChEMBL document CHEMBL1150916, “Isolation of 2-(3'-bromo-4'-hydroxyphenol)ethanamine from the New Zealand ascidian Cnemidocarpa bicornuta” (J Nat Prod, 1998)
Calls of active or inactive are those of the source. The rule behind the calls is not given here.

Assays:
P388 = assay: Cytotoxicity against mouse P388 cells; format: functional, cell-based
Escherichia coli = assay: Antibacterial activity against Escherichia coli; format: functional, organism-based
Bacillus subtilis = assay: Antibacterial activity against Bacillus subtilis; format: functional, organism-based
Candida albicans = assay: Antifungal activity against Candida albicans; format: functional, organism-based
Pseudomonas aeruginosa = assay: Antibacterial activity against Pseudomonas aeruginosa; format: functional, organism-based

Row | Structure (SMILES) | Activity (P388) | Activity (Escherichia coli) | Activity (Bacillus subtilis) | Activity (Candida albicans) | Activity (Pseudomonas aeruginosa) | IC50 (P388)
1 | Cn1c(=N)c2nc[nH]c2n(C)c1=O | inactive | inactive | inactive | inactive | inactive | –
2 | NCCc1ccc(O)c(Br)c1 | – | inactive | inactive | inactive | inactive | 46 µM
